Calls of active or inactive are those of the source. The rule behind the calls is not given here; tested in parental BL2 cells.
System: not listed separately
Assay: loss of cell viability by ATP content – CellTiter-Glo, cytotoxicity control, dose response (AID 1259333);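 for activity change, negative = cytotoxicity: 0% = vehicle neutral controls and -100% = reference inhibitor positive controls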
Details: cytotoxicity, CellTiter-Glo ATP luminescence; at 3.5 µM (top of the series)
In the case of `C[C@H](CO)N1C[C@H](C)[C@H](CN(C)CC2CCCCC2)Oc2ccc(NC(=O)Nc3ccc(C(F)(F)F)cc3)cc2C1=O`, the activity change, negative = cytotoxicity is reported as 32.8% (inactive).
In the case of `O=C(Nc1ccc(C(F)(F)F)cc1)Nc1ccc2c(c1)[C@H]1C[C@@H](CC(=O)N3CCc4ccccc4C3)O[C@@H](CO)[C@H]1O2`, the activity change, negative = cytotoxicity is reported as 30.5% (inactive).
In the case of `N#C[C@H]1[C@H](c2ccc(C#CC3CCCCC3)cc2)[C@@H](CO)N1C(=O)Nc1ccc(F)cc1`, the activity change, negative = cytotoxicity is reported as 25.8% (inactive).

Same assay, conditions: cytotoxicity, CellTiter-Glo ATP luminescence; at 10 µM (top of the series)
With `COc1ccc(S(=O)(=O)N(C)C[C@H]2Oc3ccc(NC(=O)Nc4ccc(C(F)(F)F)cc4)cc3C(=O)N([C@@H](C)CO)C[C@H]2C)cc1` the activity change, negative = cytotoxicity was 24.4% (inactive).
In the case of `Cc1cc(C)c2c(c1)SC1=NC(c3ccccc3)(C(F)(F)F)NC(=O)N12` (configuration not stated), the activity change, negative = cytotoxicity is reported as 30.7% (inactive).
With `C=C1C(=O)OC2C=C(CO)C3OC3C3OC3(C)CC(OC(=O)/C(=C/C)COC(C)=O)C12` (configuration not stated) the activity change, negative = cytotoxicity was 17.5% (inactive).
For `O=C(CN1C(=O)c2ccccc2S1(=O)=O)Nc1ncc(Cl)cc1Cl`, the activity change, negative = cytotoxicity was 30.7% (inactive).
With `COc1cccc(S(=O)(=O)N(C)C[C@@H]2OCc3ccccc3-c3c(n(C)c4ccccc34)C(=O)N([C@H](C)CO)C[C@@H]2C)c1` the activity change, negative = cytotoxicity was 41.8% (inactive).
In the case of `O=C(C[C@H]1CC[C@@H]2[C@H](COC[C@H](O)CN2Cc2cc(F)ccc2F)O1)NCc1ccc(Oc2ccccc2)cc1`, the activity change, negative = cytotoxicity is reported as 17% (inactive).
In the case of `C[C@H]1CN([C@@H](C)CO)C(=O)c2c(c3ccccc3n2C)-c2ccccc2CO[C@H]1CN(C)S(=O)(=O)c1ccc([N+](=O)[O-])cc1`, the activity change, negative = cytotoxicity is reported as 75.5% (inactive).
In the case of `NC(c1ccccc1)c1csc(NC(=O)Nc2cccc(C(F)(F)F)c2)n1` (configuration not stated), the activity change, negative = cytotoxicity is reported as -26.9% (inactive).
With `CC(C)C1CC(N(C)C)=CC(=S)N1` (configuration not stated) the activity change, negative = cytotoxicity was 24.5% (inactive).
With `Cc1ccc(S(=O)(=O)N[C@@H](Cc2ccccc2)C(=O)CCl)cc1` the activity change, negative = cytotoxicity was 82.4% (inactive).
With `C[C@@H]1CN([C@H](C)CO)C(=O)c2c(c3ccccc3n2C)-c2ccccc2CO[C@H]1CN(C)C(=O)Nc1ccccc1C(F)(F)F` the activity change, negative = cytotoxicity was -16.3% (inactive).
For `CC1=CC(=O)c2ccccc2C1=O`, the activity change, negative = cytotoxicity was 36.2% (inactive).
With `COc1ccc(S(=O)(=O)N(C)C[C@H]2Oc3ccc(NC(=O)Nc4ccc(C(F)(F)F)cc4)cc3C(=O)N([C@@H](C)CO)C[C@@H]2C)cc1` the activity change, negative = cytotoxicity was 33.2% (inactive).
In the case of `COc1cc2c(cc1OC)C(=O)C(Br)CC2` (configuration not stated), the activity change, negative = cytotoxicity is reported as 112% (inactive).
In the case of `COc1ccc2cc(-c3cc(C(=O)O)c4ccccc4n3)ccc2c1`, the activity change, negative = cytotoxicity is reported as 6.64% (inactive).
With `CCc1cnc(N2[C@H](C#N)[C@H](c3ccc(C#Cc4ccccc4F)cc3)[C@H]2CO)s1` the activity change, negative = cytotoxicity was 12.3% (inactive).
With `CCN(CC(=O)Nc1ccc(NC(C)=O)cc1)C(=O)C1CCCN(C(=O)c2ccc(Cl)cc2)C1` (configuration not stated) the activity change, negative = cytotoxicity was 33.9% (inactive).
For `CCCNC(=O)N1[C@H](C#N)[C@H](c2ccc(C#Cc3cccc(F)c3)cc2)[C@H]1CO`, the activity change, negative = cytotoxicity was 16.9% (inactive).
For `C[C@H]1CN([C@@H](C)CO)C(=O)c2ccccc2-c2ccccc2CO[C@H]1CN(C)C(=O)[C@@H](Cc1ccccc1)N(C)C`, the activity change, negative = cytotoxicity was 83.4% (inactive).
With `CCc1cnc(N2[C@H](C#N)[C@@H](c3ccc(C#CC(C)C)cc3)[C@H]2CO)s1` the activity change, negative = cytotoxicity was 10.7% (inactive).
For `CC(C)OC(=O)CC1C(=O)NCCN1C(=S)NC(=O)c1cccs1` (configuration not stated), the activity change, negative = cytotoxicity was 19.9% (inactive).
With `O=c1cc(-c2ccccc2)oc2cc(O)cc(O)c12` the activity change, negative = cytotoxicity was 52.1% (inactive).
In the case of `COc1ccc(C(=O)/C=C/C(=O)N(CC(=O)NC2CCCCC2)Cc2ccc(F)cc2)c(O)c1`, the activity change, negative = cytotoxicity is reported as 46.2% (inactive).
With `CC[C@@]1(O)C(=O)OCc2c1cc1n(c2=O)Cc2cc3cc(O)ccc3nc2-1` the activity change, negative = cytotoxicity was 12.3% (inactive).
For `CC1=CC(=O)c2c(O)cccc2C1=O`, the activity change, negative = cytotoxicity was 112% (inactive).
With `CCOC(=O)c1c(SCCN2CCCC2)n(-c2ccccc2)c(=S)n(-c2ccccc2)c1=O` the activity change, negative = cytotoxicity was 63.8% (inactive).
With `CCCCCCCCCc1ccc(OCCOCCOCCOCCOCCOCCOCCOCCOCCO)cc1` the activity change, negative = cytotoxicity was 13.3% (inactive).
In the case of `C[C@H]1CCCCO[C@H](CN(C)Cc2ccc(C(F)(F)F)cc2)[C@@H](C)CN([C@@H](C)CO)C(=O)c2cc(NC(=O)Nc3cccc4ccccc34)ccc2O1`, the activity change, negative = cytotoxicity is reported as 29.1% (inactive).
With `O=C1C(=NO)CCc2ccccc21` the activity change, negative = cytotoxicity was 115% (inactive).
For `CC1CNCCN1S(=O)(=O)c1cccc2cnccc12` (configuration not stated), the activity change, negative = cytotoxicity was -37.9% (inactive).
In the case of `COc1ccc(CN2CC3(CN(C(=O)Cc4ccccc4)C3)c3c([nH]c4cc(OC)ccc34)[C@H]2CO)cc1`, the activity change, negative = cytotoxicity is reported as 21.8% (inactive).
In the case of `O=c1cc(-c2ccc(O)cc2)oc2ccc3ccccc3c12`, the activity change, negative = cytotoxicity is reported as 20.1% (inactive).
With `COc1ccc(S(=O)(=O)Nc2ccc3c(c2)C(=O)N([C@@H](C)CO)C[C@@H](C)[C@@H](CN(C)Cc2ccc(C(F)(F)F)cc2)OCCCC[C@@H](C)O3)cc1` the activity change, negative = cytotoxicity was -20.6% (inactive).
In the case of `C[C@H]1CN([C@@H](C)CO)C(=O)c2cccc(NC(=O)Nc3ccc(F)cc3)c2O[C@H]1CN(C)S(=O)(=O)c1ccc(Cl)cc1`, the activity change, negative = cytotoxicity is reported as 55% (inactive).
In the case of `Cn1cnc(S(=O)(=O)N2C[C@@H]3N[C@H](C2)C3c2ccc(-c3ccccc3F)cc2)c1` (some centres not stated), the activity change, negative = cytotoxicity is reported as 36.7% (inactive).
With `Cc1cnc(NC(=O)c2ccc(OCC3CCCO3)cc2)s1` (configuration not stated) the activity change, negative = cytotoxicity was 5.83% (inactive).
In the case of `C[C@@H]1CN([C@H](C)CO)C(=O)c2cc(NS(=O)(=O)c3cccs3)ccc2O[C@@H](C)CCCCO[C@H]1CN(C)Cc1ccc(Cl)c(Cl)c1`, the activity change, negative = cytotoxicity is reported as 16.1% (inactive).
With `COc1ccc(C(=O)CCN2CCc3cc(OC)c(OC)cc3C2)cc1` the activity change, negative = cytotoxicity was 22.2% (inactive).
In the case of `COc1ccc(S(=O)(=O)Nc2ccc3c(c2)C(=O)N([C@H](C)CO)C[C@@H](C)[C@@H](CN(C)Cc2ccc(C(F)(F)F)cc2)OCCCC[C@@H](C)O3)cc1`, the activity change, negative = cytotoxicity is reported as 4.86% (inactive).
In the case of `Cc1ccc(N2CC(C(=O)Nc3nccs3)CC2=O)cc1Cl` (configuration not stated), the activity change, negative = cytotoxicity is reported as 22.3% (inactive).
In the case of `CC(C)CC#Cc1ccc([C@@H]2[C@H]3CN(C(=O)Nc4ccccc4)CCCCN3[C@H]2CO)cc1`, the activity change, negative = cytotoxicity is reported as 40.2% (inactive).
With `CCCNC(=O)c1cc2c(c(-c3cccc(-c4cc5ccccc5o4)c3)n1)[C@H](CCO)N(C(=O)NC(C)C)C2` the activity change, negative = cytotoxicity was 109% (inactive).
With `CC(=O)[C@]1(O)Cc2c(O)c3c(c(O)c2[C@@H](O[C@H]2C[C@H](N)[C@H](O)[C@H](C)O2)C1)C(=O)c1ccccc1C3=O` the activity change, negative = cytotoxicity was -5.56% (inactive).
For `Fc1ccccc1/C=C1\CCCC2=C1Nc1nnnn1C2c1ccccc1F` (configuration not stated), the activity change, negative = cytotoxicity was 12.3% (inactive).
In the case of `Cc1ccc2c(c1)C(O)(CC(=O)/C=C/C=C/c1ccccc1)C(=O)N2` (configuration not stated), the activity change, negative = cytotoxicity is reported as 24.8% (inactive).
For `CC1CC(C)(C)Nc2ccc(OC(=O)c3ccco3)cc21` (configuration not stated), the activity change, negative = cytotoxicity was 203% (inactive).
In the case of `Cc1csc(NC(=O)c2ccc(N3CCCC3=O)cc2)n1`, the activity change, negative = cytotoxicity is reported as 23.5% (inactive).

System: cytotoxicity, CellTiter-Glo ATP luminescence
Assay: as above
Details: not given
Work on `C[C@H]1CN([C@@H](C)CO)C(=O)c2c(c3ccccc3n2C)-c2ccccc2CO[C@@H]1CN(C)Cc1cccc(C(F)(F)F)c1` yielded an AC50 of 4.21 µM.
`O=C1C=CC2C3C(=O)N(c4ccccc4)C(=O)C3C1N2Cc1ccccc1` (configuration not stated) showed an AC50 of 8.98 µM.
For `Clc1ccc(C(Cn2ccnc2)OCc2ccsc2Cl)c(Cl)c1` (configuration not stated), the AC50 was > 20 µM (inactive).
With `COC(=O)c1nn(-c2ccc(-c3ccccc3)cc2)cc1O` the AC50 was > 20 µM (inactive).
`CC(=O)Nc1ccc(Sc2ccc([N+](=O)[O-])o2)cc1` showed an AC50 of 6.13 µM.
For `O=C(Nc1ccccc1)N1CC(=O)N2[C@H](CO)[C@@H](c3ccc(C#CC4CCCCC4)cc3)[C@H]2C1`, the AC50 was > 20 µM (inactive).
`C[C@@H]1CN([C@@H](C)CO)C(=O)c2c(c3ccccc3n2C)-c2ccccc2CO[C@H]1CN(C)Cc1cccc(C(F)(F)F)c1` gave an AC50 of 3.94 µM.
In the case of `CC(NCC(O)COCCC12CC3CC(CC(C3)C1)C2)c1ccccc1` (configuration not stated), the AC50 is reported as 6.49 µM.
`CC(C)(C)[C@H](N)C(=O)N[C@H]1CCC2C3CC=C4C[C@@H](O)CC[C@]4(C)C3CC[C@@]21C` (some centres not stated) gave an AC50 of 5.7 µM.
`O=C1Cc2c([nH]c3ccc(Br)cc23)-c2ccccc2N1` showed an AC50 of 10.2 µM.
For `NC(=O)c1c(Br)n(C2OC(CO)C(O)C2O)c2ncnc(N)c12` (configuration not stated), the AC50 was 3.14 µM.
Work on `C=CC[n+]1c(/C=C2\C=Cc3cc(C)ccc3N2CC)ccc2ccccc21` yielded an AC50 of 7.46 µM.
In the case of `C[C@@H]1CN([C@H](C)CO)C(=O)c2c(c3ccccc3n2C)-c2ccccc2CO[C@H]1CN(C)C(=O)Nc1cccc(Cl)c1Cl`, the AC50 is reported as 10.1 µM.
For `COc1ccc(S(=O)(=O)Nc2ccc3c(c2)C(=O)N([C@H](C)CO)C[C@@H](C)[C@H](CN(C)Cc2ccc(C(F)(F)F)cc2)OCCCC[C@@H](C)O3)cc1`, the AC50 was 8.94 µM.
In the case of `CC1CC(C)C(=NNC(N)=O)C(C(O)CC2CCC(=O)NC2=O)C1` (configuration not stated), the AC50 is reported as > 20 µM (inactive).
With `COc1c(-c2coc3cc4c(cc3c2=O)CC(O)C(C)(C)O4)ccc2c1C=CC(C)(C)O2` (configuration not stated) the AC50 was > 20 µM (inactive).
In the case of `CC12CCC3C(CCC4(O)CC(O)CCC34C=O)C1(O)CCC2C1=CC(=O)OC1` (configuration not stated), the AC50 is reported as 3.23 µM.
With `CCSc1ccc(-c2cc(NC=O)c3ncc(-c4cccc(C(=O)N(C)C)c4)n3c2)cc1` the AC50 was > 20 µM (inactive).
With `[O-]C(=C(C(=S)Nc1cccc2ccccc12)[n+]1ccccc1)c1ccc2c(c1)OCCO2` the AC50 was > 7 µM (inactive).
Compound `c1ccc(-c2nc(-c3ccccn3)no2)cc1` has an AC50 of 11.5 µM.
`CCc1cc2c(=O)c(-c3ccc4c(c3)OCCO4)coc2c(CN2CCCCC2C)c1O` (configuration not stated) gave an AC50 of 8.84 µM.
With `C[C@H]1CN([C@@H](C)CO)C(=O)c2ccccc2-c2ccccc2CO[C@@H]1CN(C)Cc1ccccc1C(F)(F)F` the AC50 was 10.5 µM.
With `CSc1ccc2c(c1)N(CCC1CCCCN1C)c1ccccc1S2` (configuration not stated) the AC50 was 8.67 µM.
`CC1=C(C#N)c2nc(N)c(C#N)c(C)c2/C1=C\c1ccccc1` gave an AC50 of 8.93 µM.
For `COCC(C)n1c(C)cc(C(=O)COC(=O)c2cccn2C)c1C` (configuration not stated), the AC50 was > 7 µM (inactive).
`COC(=O)C1=C(C(=O)OC)C2OC1c1cc3ccccc3cc12` gave an AC50 of 2.65 µM.
`Cc1ccc(S(=O)(=O)N2CCCC2CNC(=O)c2ccc3c(c2)OCO3)cc1` (configuration not stated) showed an AC50 of 4.95 µM.

Source: PubChem BioAssay AID1259333 (Broad Institute, 2017)
